# Source: US7566459B2, “Modified mycobacterium tuberculosis strains and uses thereof” (priority 2005, dated 2009)
# No end group written: not given here. *: point of attachment. Palmitoyl = CCCCCCCCCCCCCCCC(=O)*
# Assays:
# RAW264.7 cells [1] = assay type: cell-based, murine
# RAW264.7 cells [2] = assay type: cell-based, murine; remark: listed apart in the source
# human TLR2 = target: T1, human TLR2 (Homo sapiens, UniProt O60603); assay type: cell-based
# T1 construct: using an HEK293 cell line stably transfected with cDNA encoding human TLR2
# T1 sequence (O60603 21-784): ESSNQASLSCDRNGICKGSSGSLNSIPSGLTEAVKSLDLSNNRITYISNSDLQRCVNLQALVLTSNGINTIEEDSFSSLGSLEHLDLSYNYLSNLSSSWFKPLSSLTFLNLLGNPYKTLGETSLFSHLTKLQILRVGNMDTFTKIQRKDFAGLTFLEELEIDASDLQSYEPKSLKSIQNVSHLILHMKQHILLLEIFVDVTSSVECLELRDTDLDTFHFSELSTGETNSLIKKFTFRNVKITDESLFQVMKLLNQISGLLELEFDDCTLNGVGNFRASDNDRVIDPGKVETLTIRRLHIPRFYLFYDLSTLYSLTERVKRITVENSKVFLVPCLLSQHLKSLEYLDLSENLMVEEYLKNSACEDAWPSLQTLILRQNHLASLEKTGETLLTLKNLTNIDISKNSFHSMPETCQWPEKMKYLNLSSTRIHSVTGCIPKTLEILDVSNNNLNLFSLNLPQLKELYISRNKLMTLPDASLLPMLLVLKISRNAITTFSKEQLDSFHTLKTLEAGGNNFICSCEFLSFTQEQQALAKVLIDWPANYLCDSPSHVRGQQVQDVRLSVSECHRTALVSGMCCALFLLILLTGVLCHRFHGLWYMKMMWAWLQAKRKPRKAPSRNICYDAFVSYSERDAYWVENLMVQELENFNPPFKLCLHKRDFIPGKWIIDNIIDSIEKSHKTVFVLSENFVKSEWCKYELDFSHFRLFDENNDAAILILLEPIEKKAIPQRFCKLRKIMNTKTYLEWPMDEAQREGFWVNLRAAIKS
# [3] = test system: bone marrow derived macrophages (BMDM); assay type: cell-based, mice
# BMDM = assay: cells; assay type: cell-based, mice; conditions: Mus musculus, read-out: inhibition of TNFα production (as a measure of protein synthesis)
compound,measurement,setting,value
"(S)-[2,3-Bis(palmitoyloxy)-(2-RS)-propyl]-N-palmitoyl-(R)-Cys-(S)-Ser-(S)-Lys4-OH, 3HCl (Palmitoyl-CSKKKK-OH; not fully specified (residue 1); also: 3 HCl salt) [Pam3CSK4, synthetic triacylated hexapeptide, TLR2/TLR1 agonist]",IFNγ induction of class II transactivator (CIITA) mRNA,RAW264.7 cells [1],potently inhibited
same,inhibition of IFNγ induction of surface MHC class II,RAW264.7 cells [2],greater than 90%
macrophage-activating lipopeptide-2,activation of 293-TLR2 cells / secretion of IL-8 (in words),human TLR2,significant amounts of IL-8
C[C@@H]1C[C@@H]([C@H](O)CC2CC(=O)NC(=O)C2)C(=O)[C@@H](C)C1 [cycloheximide],effect on ability of wild-type or ΔlspA Mycobacterium tuberculosis to inhibit IFNγ induction of CIITA gene expression,[3],prevented
same,inhibition at 0.5 µM,BMDM,~90%
"(S)-[2,3-Bis(palmitoyloxy)-(2-RS)-propyl]-(R)-Cys-(S)-Ser-(S)-Lys4×3 CF3COOH (CSKKKK; not fully specified (residue 1); also: 3 CF3COOH salt) [Pam2CSK4, diacylated analog of Pam3CSK4]",activation of 293-TLR2 cells / secretion of IL-8 (in words),human TLR2,significant amounts of IL-8
